# From patent publication US20250179061A1 (SIRONAX LTD., priority 2022, published 2025)
# Test system: HT-29 cells
# Test: HT-29 necroptosis cell viability assay (TNF-α/SMAC mimetic/zVAD-FMK, CellTiter-Glo)
# Assay type: cell-based
# Conditions: Homo sapiens; HT-29 cells stimulated with TNF-α (10 ng/ml), SMAC mimetic (6 μM) and zVAD-FMK (10 μM); 20 hours; CellTiter-Glo ATP luminescence; geometric mean IC50 from 10 points; read-out: Activity
# Protocol: Compounds 1-702 of the disclosure were tested for biological activity, following the experimental procedures described below.
# • Cell line: HT-29 (ATCC® HTB-38™) • Culture medium: McCOY's 5A, Gibco, Cat No. 16600-082 • FBS, Gibco, Cat No. 10099-141 C • Trypsin: Gibco, Cat No. 25200-056 • DMSO: Sigma, Cat No. 67-68-5, 1L • Assay plate: Corning #3903 • Compound dilution plate: Corning #3357 • Inducers: TNFα, GenScript, Cat No. Z01001-50, • SmacM, Cat. No., HY-15989, MedChemExpress (MCE) • Z_VAD FMK, TargetMol, T6013 • Cell Titer-Glo® Luminescent Cell Viability Assay Kit: Promega, Cat No. G7573 • EnVision: PerkinElmer, 2105-0010
# • 1. HT-29 cells were checked every day to make sure that they were healthy and growing as expected. They were subjected to sub-culturing when they were approximately 80% confluent. • 2. The culture medium, McCOY's 5A medium (Gibco, Cat No. 16600-082) with 10% fetal bovine serum or FBS (Gibco, Cat No. 10099-141C), was pre-warmed in a 37° C. water bath for at least 30 min. • 3. When the cells had reached a desired level of confluency of 80% in a T75 flask, the medium was aspirated, and the cells were washed with warm phosphate buffered saline or PBS two times. • 4. 2-3 ml fresh warm trypsin (Gibco, Cat No. 25200-056) solution was added to the washed cells. The flask with the cells was transferred to a 37° C. incubator. • 5. After 5 minutes, the side of the flask was tapped, and the flask was examined under a microscope for detachment of the cells to the flask. If necessary, the cells were kept in the incubator for an additional 5-10 minutes, with occasional tapping, until lifting was complete. • 6. The trypsin reaction was neutralized by transferring 6-9 ml cell culture medium to sterile 15 ml conical tubes, and by centrifuging the cell culture at 300×g for 7 minutes to pellet the cells (supernatant decanted). • 7. The cells were resuspended in fresh cell culture medium and the cell counting was performed using a hemocytometer. • 8. 100 μl of the resuspended cell culture medium containing ˜5,000 cells were transferred into each well of the sterile 96-well cell culture plate (Corning 3903) and cultured overnight at 37° C. with 5% CO2.
# • 1. All test compounds were dissolved in DMSO (Dimethyl sulfoxide) to create a 20 mM stock. • 2. 3 μl of 20 mM stock of each compound was mixed with 27 μl DMSO, and the compound solution was further diluted at a titration ratio of 1:3 (20 μl compound solution+40 μl DMSO) till the 10 points end. • 3. All culture medium was removed from assay plates filled with HT-29 cell cultures. The cells were then washed with 1 PBS, and resuspsended in fresh, FBS-free McCOY's 5A medium containing a cocktail of TNF-α (10 ng/ml), a SMAC mimetic compound (6 μM) and Z-VAD-fluoromethylketone or zVAD-FMK (10 μM) to stimulate the HT-29 cells to increase RIP1 kinase levels and necroptosis. • 4. 0.5 μL of the diluted compound solution was added to the corresponding 96-well assay plates. • 5. The assay plates were incubated for 20 hours at 37° C. with 5% CO2.
# • 1. The CellTiter-Glo® Luminescent Cell Viability Assay was employed to detect the ATP levels of viable HT-29 cells. • 2. The CellTiter-Glo® buffer and the lyophilized substrate were equilibrated to room temperature prior to use. • 3. The CellTiter-Glo® substrate was resuspended with CellTiter-Glo® buffer, then mixed by gently vortexing to obtain a homogeneous solution. • 4. 20 μl of the enzyme/substrate mixture was transferred by multi-channel pipetting into 96-well assay plates. • 5. The assay plates were placed on an orbital shaker and the contents were shaken for 3 minutes to induce cell lysis. • 6. The assay plates were incubated at room temperature for 10 minutes to stabilize the luminescent signal. • 7. The luminescence signals were read and recorded with EnVision. • 8. The geometric mean IC50 values were calculated from 10 points response dose with duplicates. […]
row,Structure (SMILES),IC50 [nM]
1,"Cn1nc(C(N)=O)cc1Oc1ccc(-n2nc3n(c2=O)C(c2ccccc2)CC3)cc1F (stereo not shown) [Example 29, 5-(2-fluoro-4-(3-oxo-5-phenyl-6,7-dihydro-3H-pyrrolo[2,1-c][1,2,4]triazol-2(5H)-yl)phenoxy)-1-methyl-1H-pyrazole-3-carboxamide]",< 100
2,"Cc1nc(C(N)=O)sc1Oc1ccc(-n2ncn(Cc3cnccc3Cl)c2=O)cc1F [Example 31, 5-(4-(4-((4-chloropyridin-3-yl)methyl)-5-oxo-4,5-dihydro-1H-1,2,4-triazol-1-yl)-2-fluorophenoxy)-4-methylthiazole-2-carboxamide]",< 100
3,COC(=O)c1nc(C)c(Oc2ccc(-n3ncn(Cc4ncccc4F)c3=O)cc2F)s1 [Example 32],100 to 1000
4,"COC(=O)c1nc(C)c(Oc2ccc(-n3ncn(Cc4ncccc4C#N)c3=O)cc2F)s1 [Example 33, methyl 5-(4-(4-((3-cyanopyridin-2-yl)methyl)-5-oxo-4,5-dihydro-1H-1,2,4-triazol-1-yl)-2-fluorophenoxy)-4-methylthiazole-2-carboxylate]",100 to 1000
5,"COC(=O)c1nc(C)c(Oc2ccc(-n3nc4n(c3=O)C(c3ccccc3)CC4)cc2F)s1 (stereo not shown) [Example 34, methyl 5-(2-fluoro-4-(3-oxo-5-phenyl-6,7-dihydro-3H-pyrrolo[2,1-c][1,2,4]triazol-2(5H)-yl)phenoxy)-4-methylthiazole-2-carboxylate]",100 to 1000
6,"Cc1nc(C#N)sc1Oc1ccc(-n2ncn(Cc3ncccc3Cl)c2=O)cc1F [Example 37, 5-(4-(4-((3-chloropyridin-2-yl)methyl)-5-oxo-4,5-dihydro-1H-1,2,4-triazol-1-yl)-2-fluorophenoxy)-4-methylthiazole-2-carbonitrile]",< 100
7,"Cc1nc(C#N)sc1Oc1ccc(-n2ncn(Cc3cnccc3Cl)c2=O)cc1F [Example 38, 5-(4-(4-((4-chloropyridin-3-yl)methyl)-5-oxo-4,5-dihydro-1H-1,2,4-triazol-1-yl)-2-fluorophenoxy)-4-methylthiazole-2-carbonitrile]",< 100
8,"Cc1nc(C2CC(C#N)C2)sc1Oc1ccc(-n2ncn(Cc3c(F)cccc3F)c2=O)cc1 (stereo not shown) [Example 39, 3-(5-(4-(4-(2,6-difluorobenzyl)-5-oxo-4,5-dihydro-1H-1,2,4-triazol-1-yl)phenoxy)-4-methylthiazol-2-yl)cyclobutane-1-carbonitrile]",< 100
9,"Cc1nc(C2CC(C#N)C2)sc1Oc1ccc(-n2ncn(Cc3c(F)cccc3F)c2=O)cc1F (stereo not shown) [Example 40, 3-(5-(4-(4-(2,6-difluorobenzyl)-5-oxo-4,5-dihydro-1H-1,2,4-triazol-1-yl)-2-fluorophenoxy)-4-methylthiazol-2-yl)cyclobutane-1-carbonitrile]",< 100
10,"Cc1nc(C2CN(C(=O)OC(C)(C)C)C2)sc1Oc1ccc(-n2ncn(Cc3c(F)cccc3F)c2=O)cc1F [Example 41, tert-butyl 3-(5-(4-(4-(2,6-difluorobenzyl)-5-oxo-4,5-dihydro-1H-1,2,4-triazol-1-yl)-2-fluorophenoxy)-4-methylthiazol-2-yl)azetidine-1-carboxylate]",< 100
11,"Cc1nc(C2COC2)sc1Oc1ccc(-n2ncn(Cc3c(F)cccc3F)c2=O)cc1 [Example 42, 4-(2,6-difluorobenzyl)-2-(4-((4-methyl-2-(oxetan-3-yl)thiazol-5-yl)oxy)phenyl)-2,4-dihydro-3H-1,2,4-triazol-3-one]",< 100
12,"Cc1nc(N2C[C@@H](C#N)[C@@H]2C)sc1Oc1ccc(-n2ncn(Cc3c(F)cccc3F)c2=O)cc1 [Example 43, (2S,3R)-1-(5-(4-(4-(2,6-difluorobenzyl)-5-oxo-4,5-dihydro-1H-1,2,4-triazol-1-yl)phenoxy)-4-methylthiazol-2-yl)-2-methylazetidine-3-carbonitrile]",< 100
13,"Cc1nc(N2C[C@H](C#N)[C@@H]2C)sc1Oc1ccc(-n2ncn(Cc3c(F)cccc3F)c2=O)cc1 [Example 44, (2S,3S)-1-(5-(4-(4-(2,6-difluorobenzyl)-5-oxo-4,5-dihydro-1H-1,2,4-triazol-1-yl)phenoxy)-4-methylthiazol-2-yl)-2-methylazetidine-3-carbonitrile]",< 100
14,"Cc1nc(NC23CC(C#N)(C2)C3)sc1Oc1ccc(-n2ncn(Cc3c(F)cccc3F)c2=O)cc1 [Example 45, 3-((5-(4-(4-(2,6-difluorobenzyl)-5-oxo-4,5-dihydro-1H-1,2,4-triazol-1-yl)phenoxy)-4-methylthiazol-2-yl)amino)bicyclo[1.1.1]pentane-1-carbonitrile]",< 100
15,"Cc1nc(N2CC(C)(C#N)C2)sc1Oc1ccc(-n2ncn(Cc3c(F)cccc3F)c2=O)cc1 [Example 46, 1-(5-(4-(4-(2,6-difluorobenzyl)-5-oxo-4,5-dihydro-1H-1,2,4-triazol-1-yl)phenoxy)-4-methylthiazol-2-yl)-3-methylazetidine-3-carbonitrile]",< 100
16,"Cc1nc(N2CC(OC3CC3)C2)sc1Oc1ccc(-n2ncn(Cc3c(F)cccc3F)c2=O)cc1 [Example 47, 2-(4-((2-(3-cyclopropoxyazetidin-1-yl)-4-methylthiazol-5-yl)oxy)phenyl)-4-(2,6-difluorobenzyl)-2,4-dihydro-3H-1,2,4-triazol-3-one]",< 100
17,"Cc1nc(N2CC(C#N)C2C)sc1Oc1ccc(-n2ncn(Cc3c(F)cccc3F)c2=O)cc1 (stereo not shown) [Example 48, 1-(5-(4-(4-(2,6-difluorobenzyl)-5-oxo-4,5-dihydro-1H-1,2,4-triazol-1-yl)phenoxy)-4-methylthiazol-2-yl)-2-methylazetidine-3-carbonitrile]",< 100
18,"Cc1nc(N2CC(OC(F)F)C2)sc1Oc1ccc(-n2ncn(Cc3c(F)cccc3F)c2=O)cc1 [Example 49, 4-(2,6-difluorobenzyl)-2-(4-((2-(3-(difluoromethoxy)azetidin-1-yl)-4-methylthiazol-5-yl)oxy)phenyl)-2,4-dihydro-3H-1,2,4-triazol-3-one]",< 100
19,"Cc1nc(N2C[C@@H](O)[C@@H]2C)sc1Oc1ccc(-n2ncn(Cc3c(F)cccc3F)c2=O)cc1 [Example 50, 4-(2,6-difluorobenzyl)-2-(4-((2-((2S,3R)-3-hydroxy-2-methylazetidin-1-yl)-4-methylthiazol-5-yl)oxy)phenyl)-2,4-dihydro-3H-1,2,4-triazol-3-one]",< 100
20,"Cc1nc(N2C[C@H](F)[C@@H]2C)sc1Oc1ccc(-n2ncn(Cc3c(F)cccc3F)c2=O)cc1 [Example 51, 4-(2,6-difluorobenzyl)-2-(4-((2-((2S,3S)-3-fluoro-2-methylazetidin-1-yl)-4-methylthiazol-5-yl)oxy)phenyl)-2,4-dihydro-3H-1,2,4-triazol-3-one]",< 100
21,"Cc1nc(N2CC([C@H](C)O)C2)sc1Oc1ccc(-n2ncn(Cc3c(F)cccc3F)c2=O)cc1 [Example 52, (S)-4-(2,6-difluorobenzyl)-2-(4-((2-(3-(1-hydroxyethyl)azetidin-1-yl)-4-methylthiazol-5-yl)oxy)phenyl)-2,4-dihydro-3H-1,2,4-triazol-3-one]",< 100
22,"Cc1nc(N2CC(C#N)C2)sc1Oc1ccc(-n2ncn(Cc3c(F)cccc3F)c2=O)cc1 [Example 53, 1-(5-(4-(4-(2,6-difluorobenzyl)-5-oxo-4,5-dihydro-1H-1,2,4-triazol-1-yl)phenoxy)-4-methylthiazol-2-yl)azetidine-3-carbonitrile]",< 100
